According to ChEMBL document CHEMBL4145625 (J Med Chem, 2018):
pIC50: −log10 of the molar value. ≈ marks a conversion by molar mass, not a printed value.

Experiments:
NCI-H460 [1] = assay: cells; type: functional, cell-based; conditions: Homo sapiens, NCI-H460, 96 h
Description: Cytotoxicity against human NCI-H460 cells after 96 hrs by MTT assay

in vivo [2] = conditions: athymic BALB/c nude, mouse, plasma, po, 10 mg/kg
U-87 MG [3] = assay: Antitumor activity against Luc tagged human U87MG cells xenografted in BALB/c nude mouse glioblastoma orthotopic model assessed as tumor growth inhibition at 5 mg/kg, po qd by MRI method relative to control; type: functional, U-87MG ATCC; conditions: read-out: TGI
DU-145 = assay: cells; type: functional, cell-based; conditions: Homo sapiens, DU-145, 96 h
Description: Cytotoxicity against human DU145 cells after 96 hrs by MTT assay

in vitro = conditions: human, plasma
Description: Protein binding in human plasma at 2 uM after 6 hrs by LC-MS/MS analysis

U-87 MG [4] = assay: cells; type: functional, cell-based, U-87MG ATCC; conditions: Homo sapiens, 96 h
Description: Cytotoxicity against human U87MG cells after 96 hrs by MTT assay

Salmonella typhimurium [5] = assay: Mutagenicity in Salmonella typhimurium TA1535 up at 50 ug/plate after 72 hrs in presence of S9 fraction by Ames test; type: toxicity, organism-based; conditions: salmonella enterica subsp. enterica serovar typhimurium, s9, 72 h
in vivo [6] = conditions: ICR, mouse, brain, po, 30 mg/kg
[7] = molecular target: T1, Phosphatidylinositol 4,5-bisphosphate 3-kinase catalytic subunit delta isoform (Homo sapiens, UniProt O00329); assay: Inhibition of PI3Kdelta (unknown origin) using PIP2 as substrate by ADP-Glo assay
T1 sequence (O00329 whole entry): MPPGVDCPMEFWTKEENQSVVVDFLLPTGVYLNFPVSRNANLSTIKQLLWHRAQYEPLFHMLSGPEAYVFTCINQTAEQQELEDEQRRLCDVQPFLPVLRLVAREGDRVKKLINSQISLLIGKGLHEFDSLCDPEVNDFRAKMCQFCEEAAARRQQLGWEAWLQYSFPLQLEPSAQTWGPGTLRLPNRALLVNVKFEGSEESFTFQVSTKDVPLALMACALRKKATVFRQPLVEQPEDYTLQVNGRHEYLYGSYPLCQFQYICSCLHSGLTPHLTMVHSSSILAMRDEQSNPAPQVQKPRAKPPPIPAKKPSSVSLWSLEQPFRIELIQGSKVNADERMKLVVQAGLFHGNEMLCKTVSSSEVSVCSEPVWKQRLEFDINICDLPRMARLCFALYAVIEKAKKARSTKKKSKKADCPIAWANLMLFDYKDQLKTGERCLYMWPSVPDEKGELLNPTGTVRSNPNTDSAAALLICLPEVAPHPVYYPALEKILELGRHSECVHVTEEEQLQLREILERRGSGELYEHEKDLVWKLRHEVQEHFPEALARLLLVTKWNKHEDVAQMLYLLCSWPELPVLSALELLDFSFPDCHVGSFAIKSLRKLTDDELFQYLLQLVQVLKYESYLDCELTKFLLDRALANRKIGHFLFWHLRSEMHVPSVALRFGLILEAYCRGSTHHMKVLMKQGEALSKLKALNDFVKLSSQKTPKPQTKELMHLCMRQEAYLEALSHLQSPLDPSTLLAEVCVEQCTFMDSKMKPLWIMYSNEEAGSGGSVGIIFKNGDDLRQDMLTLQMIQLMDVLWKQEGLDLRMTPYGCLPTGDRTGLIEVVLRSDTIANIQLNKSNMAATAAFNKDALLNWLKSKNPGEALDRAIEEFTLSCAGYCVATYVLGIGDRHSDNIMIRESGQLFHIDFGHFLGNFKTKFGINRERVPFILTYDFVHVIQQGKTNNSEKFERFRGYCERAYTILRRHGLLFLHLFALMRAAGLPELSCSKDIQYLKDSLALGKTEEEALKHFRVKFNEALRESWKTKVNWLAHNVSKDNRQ

NCI-H460 [8] = assay: Antitumor activity against human NCI-H460 cells xenografted in po dosed athymic BALB/c nude mouse administered as single dose via gavage after 2 to 24 hrs; type: functional, organism-based
in vivo [9] = conditions: ICR, mouse, plasma, po, 30 mg/kg
in vivo [10] = conditions: ICR, mouse, plasma, po, 30 mg/kg; remark: listed apart in the source
Salmonella typhimurium [11] = assay: Mutagenicity in Salmonella typhimurium TA98 at 500 ug/plate after 72 hrs by Ames test; type: toxicity, organism-based; conditions: salmonella enterica subsp. enterica serovar typhimurium
[12] = mouse, in vivo, po, 30 mg/kg
Salmonella typhimurium [13] = assay: Mutagenicity in Salmonella typhimurium TA100 at 500 ug/plate after 72 hrs by Ames test; type: toxicity, organism-based; conditions: salmonella enterica subsp. enterica serovar typhimurium
HGC-27 [14] = assay: Antitumor activity against human HGC27 cells xenografted in BALB/c nude mouse assessed as tumor growth inhibition at 10 mg/kg, po administered once daily for 15 days measured at post last dose relative to control; type: functional; conditions: HGC-27, po, 360 h, read-out: TGI
Mus musculus [15] = assay: Toxicity in human HGC27 cells xenografted BALB/c nude mouse assessed as reduction in body weight at 10 mg/kg, po administered once daily for 15 days measured at post last dose; type: organism-based; conditions: in vivo, 360 h
HGC-27 [16] = assay: Antitumor activity against human HGC27 cells xenografted in BALB/c nude mouse assessed as tumor growth inhibition at 5 mg/kg, po administered once daily for 15 days measured at post last dose relative to control; type: functional; conditions: HGC-27, po, 360 h, read-out: TGI
NCI-H460 [17] = assay: Antitumor activity against human NCI-H460 cells xenografted in BALB/c nude mouse assessed as tumor growth inhibition at 5 mg/kg, po administered once daily after 16 days relative to control; type: functional; conditions: 384 h, read-out: TGI
MGC-803 [18] = conditions: Homo sapiens
Description: Antitumor activity against human MGC803 cells xenografted in po dosed BALB/c nude mouse assessed as tumor growth inhibition administered once daily measured at post last dose

MGC-803 [19] = assay: Antitumor activity against human MGC803 cells xenografted in BALB/c nude mouse assessed as tumor growth inhibition at 5 mg/kg, po administered once daily for 18 days measured at post last dose relative to control; type: functional; conditions: MGC-803, po, 432 h, read-out: TGI
MGC-803 [20] = assay: Antitumor activity against human MGC803 cells xenografted in BALB/c nude mouse assessed as tumor growth inhibition at 10 mg/kg, po administered once daily for 18 days measured at post last dose relative to control; type: functional; conditions: MGC-803, po, 432 h, read-out: TGI
NCI-H460 [21] = conditions: Homo sapiens
Description: Antitumor activity against human NCI-H460 cells xenografted in po dosed BALB/c nude mouse assessed as tumor growth inhibition administered once daily after 16 days

NCI-H460 [22] = assay: Antitumor activity against human NCI-H460 cells xenografted in BALB/c nude mouse assessed as tumor growth inhibition at 20 mg/kg, po administered once daily after 16 days relative to control; type: functional; conditions: 384 h, read-out: TGI
Mus musculus [23] = assay: Toxicity in human MGC803 cells xenografted BALB/c nude mouse assessed as reduction in body weight at 5 to 20 mg/kg, po administered daily for 18 days measured at post last dose; type: organism-based; conditions: in vivo, 432 h
MGC-803 [24] = assay: Antitumor activity against human MGC803 cells xenografted in BALB/c nude mouse assessed as tumor growth inhibition at 20 mg/kg, po administered once daily for 18 days measured at post last dose relative to control; type: functional; conditions: MGC-803, po, 432 h, read-out: TGI
NCI-H460 [25] = assay: Antitumor activity against human NCI-H460 cells xenografted in BALB/c nude mouse assessed as tumor growth inhibition at 10 mg/kg, po administered once daily after 16 days relative to control; type: functional; conditions: 384 h, read-out: TGI

| SMILES | pIC50 (NCI-H460 [1]) | inhibition in vivo at 5 mg/kg (U-87 MG [3]) [%] | pIC50 (DU-145) | pIC50 (U-87 MG [4]) | Cmax (in vivo [6]) [ng/g] | pIC50 [7] | AUC(0-inf) (in vivo [9]) [ng·h/mL] | Tmax (in vivo [10]) [min] | AUCt [12] [ng·h/g] | inhibition in vivo at 10 mg/kg (HGC-27 [14]) [%] | also measured |
| --- | --- | --- | --- | --- | --- | --- | --- | --- | --- | --- | --- |
| CNc1nc(C)c2cc(-c3cnc(OC)c(NS(=O)(=O)c4ccc(F)cc4F)c3)cc(OC3CCOCC3)c2n1 | 7.23 | 96 | 5.28 | 6.60 | 723 | 9.46 | 16100 | 10.8 | 895 | – | AUC(0-t) at 24 h (in vivo [2]): 5460 ng·h/mL; fraction unbound at 6 h, 2 µM (in vitro): 0.0454; Activity (Salmonella typhimurium [5]): Toxic; IC50 (NCI-H460 [8]): 0.034 µg/mL (≈ 0.0595 µM); Activity (Salmonella typhimurium [11]): Toxic; Activity (Salmonella typhimurium [13]): Toxic |
| CNc1nc(C)c2cc(-c3cnc(OC)c(NS(=O)(=O)c4ccc(F)cc4F)c3)cc(O[C@@H]3CCOC3)c2n1 | – | 89.4 | 5.19 | 6.40 | 433 | 9.43 | 17100 | 15 | 742 | 94.6 | Activity (Mus musculus [15]): Toxic |
| COc1ncc(-c2cc(O[C@@H]3CCOC3)c3nc(N)nc(C)c3c2)cc1NS(=O)(=O)c1ccc(F)cc1F | 7.03 | – | 5.68 | 6.59 | – | 9.64 | 9040 | 4.8 | 28.6 | 74.7 | inhibition in vivo at 5 mg/kg (HGC-27 [16]): 36.1%; inhibition in vivo at 5 mg/kg (NCI-H460 [17]): 41.9%; TGI (MGC-803 [18]): Dose-dependent effect; inhibition in vivo at 5 mg/kg (MGC-803 [19]): 55.1%; inhibition in vivo at 10 mg/kg (MGC-803 [20]): 69.3%; TGI (NCI-H460 [21]): Dose-dependent effect; inhibition in vivo at 20 mg/kg (NCI-H460 [22]): 75.9%; Activity (Mus musculus [23]): Toxic; inhibition in vivo at 20 mg/kg (MGC-803 [24]): 77.8%; inhibition in vivo at 10 mg/kg (NCI-H460 [25]): 83.1% |
